Laboratory results published in the Kinase Knowledgebase extract (Sharma et al. 2016).

These compounds were tested against EGFR (UniProt P00533).
Chain of EGFR (P00533 whole entry, looked up): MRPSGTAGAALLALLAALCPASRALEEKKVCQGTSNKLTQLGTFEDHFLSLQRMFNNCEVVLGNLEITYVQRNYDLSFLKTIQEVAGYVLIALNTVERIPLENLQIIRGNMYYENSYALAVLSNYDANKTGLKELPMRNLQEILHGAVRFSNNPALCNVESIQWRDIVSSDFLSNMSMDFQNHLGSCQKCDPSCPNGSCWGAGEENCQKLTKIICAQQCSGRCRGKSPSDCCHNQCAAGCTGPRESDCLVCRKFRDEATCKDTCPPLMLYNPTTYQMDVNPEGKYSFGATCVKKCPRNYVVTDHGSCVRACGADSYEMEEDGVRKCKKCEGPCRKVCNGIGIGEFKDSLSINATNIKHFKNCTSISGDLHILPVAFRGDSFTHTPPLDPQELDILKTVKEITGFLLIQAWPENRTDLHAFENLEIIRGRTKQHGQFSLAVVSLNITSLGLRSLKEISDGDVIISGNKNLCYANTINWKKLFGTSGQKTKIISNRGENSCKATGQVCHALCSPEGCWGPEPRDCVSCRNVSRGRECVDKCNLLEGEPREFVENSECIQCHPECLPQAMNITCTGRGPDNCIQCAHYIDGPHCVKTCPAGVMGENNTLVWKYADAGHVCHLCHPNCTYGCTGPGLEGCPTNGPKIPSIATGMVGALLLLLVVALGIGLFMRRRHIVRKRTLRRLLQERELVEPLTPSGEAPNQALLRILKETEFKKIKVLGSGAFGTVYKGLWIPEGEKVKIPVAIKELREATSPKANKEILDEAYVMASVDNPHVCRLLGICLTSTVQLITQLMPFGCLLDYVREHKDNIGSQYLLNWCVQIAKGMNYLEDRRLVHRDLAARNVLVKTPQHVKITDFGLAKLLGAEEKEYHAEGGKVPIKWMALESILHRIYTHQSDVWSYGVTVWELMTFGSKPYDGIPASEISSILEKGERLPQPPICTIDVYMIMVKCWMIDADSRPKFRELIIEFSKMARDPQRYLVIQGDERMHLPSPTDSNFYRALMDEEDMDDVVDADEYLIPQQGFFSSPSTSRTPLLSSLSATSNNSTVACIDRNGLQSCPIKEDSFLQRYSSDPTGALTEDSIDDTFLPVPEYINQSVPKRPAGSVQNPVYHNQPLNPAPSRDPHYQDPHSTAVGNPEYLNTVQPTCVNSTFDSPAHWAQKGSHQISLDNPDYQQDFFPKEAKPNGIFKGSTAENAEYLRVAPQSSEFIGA

Row | SMILES | IC50
1 | COc1cc2c(NS(=O)(=O)c3cccc(Br)c3)ncnc2cc1OCCN1CCN(C)CC1 | ≤ 1 µM
2 | CCN(CC)CCOc1cc2ncnc(NS(=O)(=O)c3cc(OC)ccc3OC)c2cc1OC | ≤ 1 µM
3 | COc1cc2c(NS(=O)(=O)c3ccccc3Br)ncnc2cc1OCCCN(C)C | ≤ 1 µM
4 | CCN(CC)CCOc1cc2ncnc(NS(=O)(=O)c3ccc(OC)cc3)c2cc1OC | ≤ 1 µM
5 | CCN(CC)CCOc1cc2ncnc(NS(=O)(=O)c3ccc(Br)cc3)c2cc1OC | ≤ 1 µM
6 | COc1cc2c(NS(=O)(=O)c3ccc(F)cc3)ncnc2cc1OCCN1CCN(C)CC1 | ≤ 1 µM
7 | CCN(CC)CCOc1cc2ncnc(NS(=O)(=O)Cc3ccccc3)c2cc1OC | ≤ 1 µM
8 | COc1ccc(S(=O)(=O)Nc2ncnc3cc(OCCN4CCN(C)CC4)c(OC)cc23)cc1OC | ≤ 1 µM
9 | COc1ccc(S(=O)(=O)Nc2ncnc3cc(OCCCN(C)C)c(OC)cc23)cc1 | ≤ 1 µM
10 | COc1cc2c(NS(=O)(=O)c3ccccc3Br)ncnc2cc1OCCCN1CCOCC1 | ≤ 1 µM
11 | COc1cc2c(NS(=O)(=O)Cc3ccccc3)ncnc2cc1OCCN1CCOCC1 | ≤ 1 µM
12 | CCN(CC)CCOc1cc2ncnc(NS(=O)(=O)c3ccccc3Cl)c2cc1OC | ≤ 1 µM
13 | COc1cc2c(NS(=O)(=O)c3ccc(F)cc3)ncnc2cc1OCCN1CCOCC1 | ≤ 1 µM
14 | COc1cc2c(NS(=O)(=O)c3c(C)cc(C)cc3C)ncnc2cc1OCCN1CCCCC1 | ≤ 1 µM
15 | COc1cc2c(NS(=O)(=O)c3ccccc3Br)ncnc2cc1OCCN1CCCCC1 | ≤ 1 µM
16 | COc1cc2c(NS(=O)(=O)c3ccccc3Br)ncnc2cc1OC1CCN(C)CC1 | ≤ 1 µM
17 | COc1cc2c(NS(=O)(=O)c3ccccc3)ncnc2cc1OC1CCN(C)CC1 | ≤ 1 µM
18 | COc1cc2c(NS(=O)(=O)c3ccc(Cl)cc3)ncnc2cc1OC1CCN(C)CC1 | ≤ 1 µM
19 | CCN(CC)CCOc1cc2ncnc(NS(=O)(=O)c3ccc(Cl)s3)c2cc1OC | ≤ 1 µM
20 | COc1cc2c(NS(=O)(=O)c3ccccc3C)ncnc2cc1OCCN1CCN(C)CC1 | ≤ 1 µM

Row | SMILES | IC50
21 | COc1cc2c(NS(=O)(=O)c3ccc(OC(F)(F)F)cc3)ncnc2cc1OCCN1CCCCC1 | ≤ 1 µM
22 | COc1ccc(S(=O)(=O)Nc2ncnc3cc(OCCN4CCN(C)CC4)c(OC)cc23)cc1 | ≤ 1 µM
23 | CCN(CC)CCOc1cc2ncnc(NS(=O)(=O)c3ccc(OC)c(OC)c3)c2cc1OC | ≤ 1 µM
24 | COc1cc2c(NS(=O)(=O)c3ccccc3)ncnc2cc1OCCN1CCN(C)CC1 | ≤ 1 µM
25 | COc1cc2c(NS(=O)(=O)c3ccc(Br)cc3)ncnc2cc1OC1CCN(C)CC1 | ≤ 1 µM
26 | CCN(CC)CCOc1cc2ncnc(NS(=O)(=O)c3cn(C)cn3)c2cc1OC | ≤ 1 µM
27 | COc1cc2c(NS(=O)(=O)c3ccc(C(F)(F)F)cc3)ncnc2cc1OCCN1CCOCC1 | ≤ 1 µM
28 | COc1ccc(OC)c(S(=O)(=O)Nc2ncnc3cc(OCCN4CCCCC4)c(OC)cc23)c1 | ≤ 1 µM
29 | CCN(CC)CCOc1cc2ncnc(NS(=O)(=O)c3cc(Cl)c(Cl)s3)c2cc1OC | ≤ 1 µM
30 | COc1cc2c(NS(=O)(=O)c3ccc(Sc4cccs4)s3)ncnc2cc1OCCN1CCOCC1 | ≤ 1 µM
31 | COc1cc2c(NS(=O)(=O)c3cc(Cl)cc(Cl)c3)ncnc2cc1OCCN1CCN(C)CC1 | ≤ 1 µM
32 | COc1cc2c(NS(=O)(=O)c3ccccc3Br)ncnc2cc1OCCN1CCOCC1 | ≤ 1 µM
33 | COc1cc2c(NS(=O)(=O)c3cn(C)cn3)ncnc2cc1OCCN1CCOCC1 | ≤ 1 µM
34 | COc1cc2c(NS(=O)(=O)c3cc(Cl)cc(Cl)c3)ncnc2cc1OCCN1CCOCC1 | ≤ 1 µM
35 | CCN(CC)CCOc1cc2ncnc(NS(=O)(=O)c3ccccc3)c2cc1OC | ≤ 1 µM
36 | CCN(CC)CCOc1cc2ncnc(NS(=O)(=O)c3cccc(Cl)c3)c2cc1OC | ≤ 1 µM
37 | COc1ccc(S(=O)(=O)Nc2ncnc3cc(OC4CCN(C)CC4)c(OC)cc23)cc1 | ≤ 1 µM
38 | COc1cc2c(NS(=O)(=O)c3ccc4ccccc4c3)ncnc2cc1OCCN1CCOCC1 | ≤ 1 µM
39 | COc1cc2c(NS(=O)(=O)c3cccc(Br)c3)ncnc2cc1OCCN1CCCCC1 | ≤ 1 µM
40 | COc1ccc(S(=O)(=O)Nc2ncnc3cc(OCCN4CCOCC4)c(OC)cc23)cc1 | ≤ 1 µM

Row | SMILES | IC50
41 | COc1cc2c(NS(=O)(=O)c3cccc(Cl)c3Cl)ncnc2cc1OCCCN(C)C | ≤ 1 µM
42 | COc1cc2c(NS(=O)(=O)c3ccc(Sc4cccs4)s3)ncnc2cc1OCCN1CCCCC1 | ≤ 1 µM
43 | COc1cc2c(NS(=O)(=O)c3ccc(Cl)cc3)ncnc2cc1OCCN1CCCCC1 | ≤ 1 µM
44 | COc1cc2c(NS(=O)(=O)c3ccc(Cl)s3)ncnc2cc1OCCN1CCOCC1 | ≤ 1 µM
45 | CCN(CC)CCOc1cc2ncnc(NS(=O)(=O)c3ccc(F)cc3)c2cc1OC | ≤ 1 µM
46 | COc1cc2c(NS(=O)(=O)c3ccc(C)cc3)ncnc2cc1OCCN1CCN(C)CC1 | ≤ 1 µM
47 | COc1cc2c(NS(=O)(=O)c3ccc(Sc4ccccc4)s3)ncnc2cc1OC1CCN(C)CC1 | ≤ 1 µM
48 | COc1cc2c(NS(=O)(=O)c3cn(C)cn3)ncnc2cc1OCCN1CCCCC1 | ≤ 1 µM
49 | COc1cc2c(NS(=O)(=O)c3ccccc3C)ncnc2cc1OCCN1CCCCC1 | ≤ 1 µM
50 | COc1cc2c(NS(=O)(=O)c3cccc4cccnc34)ncnc2cc1OCCCN1CCOCC1 | ≤ 1 µM
51 | COc1cc2c(NS(=O)(=O)c3cc(Cl)c(Cl)s3)ncnc2cc1OCCN1CCOCC1 | ≤ 1 µM
52 | COc1cc2c(NS(=O)(=O)Cc3ccccc3)ncnc2cc1OCCN1CCCCC1 | ≤ 1 µM
53 | COc1cc2c(NS(=O)(=O)c3ccc(F)cc3)ncnc2cc1OCCN1CCCCC1 | ≤ 1 µM
54 | COc1cc2c(NS(=O)(=O)c3cccc(Cl)c3)ncnc2cc1OCCCN(C)C | ≤ 1 µM
55 | COc1cc2c(NS(=O)(=O)c3cccc(Br)c3)ncnc2cc1OCCN1CCOCC1 | ≤ 1 µM
56 | COc1cc2c(NS(=O)(=O)c3ccc(Cl)s3)ncnc2cc1OCCN1CCCCC1 | ≤ 1 µM
57 | COc1cc2c(NS(=O)(=O)c3cccc4cccnc34)ncnc2cc1OC1CCN(C)CC1 | ≤ 1 µM
58 | COc1cc2c(NS(=O)(=O)c3ccccc3C#N)ncnc2cc1OCCCN1CCOCC1 | ≤ 1 µM
59 | COc1cc2c(NS(=O)(=O)c3ccccc3Cl)ncnc2cc1OCCN1CCCCC1 | ≤ 1 µM
60 | CCN(CC)CCOc1cc2ncnc(NS(C)(=O)=O)c2cc1OC | ≤ 1 µM

Further lines, results first:

Row | IC50 | SMILES
61 | ≤ 1 µM | COc1cc2c(NS(=O)(=O)c3ccc(Sc4cccs4)s3)ncnc2cc1OCCCN(C)C
62 | ≤ 1 µM | COc1cc2c(NS(=O)(=O)c3ccc(OC(F)(F)F)cc3)ncnc2cc1OCCCN(C)C
63 | ≤ 1 µM | COc1cc2c(NS(=O)(=O)c3sc(C)nc3C)ncnc2cc1OCCN1CCOCC1
64 | ≤ 1 µM | COc1cc2c(NS(=O)(=O)c3ccc(Cl)cc3Cl)ncnc2cc1OCCCN1CCOCC1
65 | ≤ 1 µM | COc1cc2c(NS(=O)(=O)c3ccccc3Cl)ncnc2cc1OCCCN(C)C
66 | ≤ 1 µM | COc1cc2c(NS(=O)(=O)c3cccc(Cl)c3Cl)ncnc2cc1OCCN1CCOCC1
67 | ≤ 1 µM | COc1ccc(S(=O)(=O)Nc2ncnc3cc(OCCN4CCCCC4)c(OC)cc23)cc1
68 | ≤ 1 µM | COc1cc2c(NS(=O)(=O)c3ccc(Sc4cccs4)s3)ncnc2cc1OC1CCN(C)CC1
69 | ≤ 1 µM | COc1ccc(OC)c(S(=O)(=O)Nc2ncnc3cc(OCCN4CCN(C)CC4)c(OC)cc23)c1
70 | ≤ 1 µM | COc1cc2c(NS(=O)(=O)c3cccc(Cl)c3)ncnc2cc1OCCCN1CCOCC1
71 | ≤ 1 µM | COc1cc2c(NS(=O)(=O)c3ccc(C)cc3)ncnc2cc1OC1CCN(C)CC1
72 | ≤ 1 µM | COc1cc2c(NS(=O)(=O)c3ccc4ccccc4c3)ncnc2cc1OCCCN(C)C
73 | ≤ 1 µM | COc1cc2c(NS(=O)(=O)c3cccc(Br)c3)ncnc2cc1OCCCN(C)C
74 | ≤ 1 µM | COc1cc2c(NS(=O)(=O)c3ccc(Br)cc3)ncnc2cc1OCCN1CCOCC1
75 | ≤ 1 µM | CCN(CC)CCOc1cc2ncnc(NS(=O)(=O)c3ccccc3C)c2cc1OC
76 | ≤ 1 µM | COc1cc2c(NS(=O)(=O)c3cccc(Cl)c3)ncnc2cc1OCCN1CCCCC1
77 | ≤ 1 µM | COc1cc2c(NS(=O)(=O)c3ccc(C(C)(C)C)cc3)ncnc2cc1OCCN1CCN(C)CC1
78 | ≤ 1 µM | COc1cc2c(NS(=O)(=O)c3ccc(Cl)cc3)ncnc2cc1OCCCN1CCOCC1
79 | ≤ 1 µM | COc1cc2c(NS(=O)(=O)c3ccc4ccccc4c3)ncnc2cc1OC1CCN(C)CC1
80 | ≤ 1 µM | CCN(CC)CCOc1cc2ncnc(NS(=O)(=O)c3ccccc3Br)c2cc1OC

Row | IC50 | SMILES
81 | ≤ 1 µM | COc1cc2c(NS(=O)(=O)c3c(C)cc(C)cc3C)ncnc2cc1OCCN1CCOCC1
82 | ≤ 1 µM | COc1ccc(S(=O)(=O)Nc2ncnc3cc(OCCCN(C)C)c(OC)cc23)cc1OC
83 | ≤ 1 µM | CCN(CC)CCOc1cc2ncnc(NS(=O)(=O)c3ccc(C(C)(C)C)cc3)c2cc1OC
84 | ≤ 1 µM | COc1cc2c(NS(=O)(=O)c3ccc4ccccc4c3)ncnc2cc1OCCN1CCCCC1
85 | ≤ 1 µM | COc1cc2c(NS(=O)(=O)c3c(C)cc(C)cc3C)ncnc2cc1OCCCN(C)C
86 | ≤ 1 µM | CCN(CC)CCOc1cc2ncnc(NS(=O)(=O)c3ccc(Sc4cccs4)s3)c2cc1OC
87 | ≤ 1 µM | COc1cc2c(NS(=O)(=O)c3ccc4ccccc4c3)ncnc2cc1OCCN1CCN(C)CC1
88 | ≤ 1 µM | CCN(CC)CCOc1cc2ncnc(NS(=O)(=O)c3c(C)cc(C)cc3C)c2cc1OC
89 | ≤ 1 µM | COc1cc2c(NS(=O)(=O)c3cccc(Cl)c3)ncnc2cc1OCCN1CCOCC1
90 | ≤ 1 µM | CCN(CC)CCOc1cc2ncnc(NS(=O)(=O)c3ccc(Sc4ccccc4)s3)c2cc1OC
91 | ≤ 1 µM | CCN(CC)CCOc1cc2ncnc(NS(=O)(=O)c3ccc(Cl)cc3)c2cc1OC
92 | ≤ 1 µM | CCN(CC)CCOc1cc2ncnc(NS(=O)(=O)c3cccc4cccnc34)c2cc1OC
93 | ≤ 1 µM | COc1ccc(S(=O)(=O)Nc2ncnc3cc(OC4CCN(C)CC4)c(OC)cc23)cc1OC
94 | ≤ 1 µM | COc1cc2c(NS(=O)(=O)c3cccc4cccnc34)ncnc2cc1OCCN1CCCCC1
95 | ≤ 1 µM | COc1cc2c(NS(C)(=O)=O)ncnc2cc1OCCN1CCOCC1
96 | ≤ 1 µM | COc1cc2c(NS(=O)(=O)c3cccc(Cl)c3)ncnc2cc1OCCN1CCN(C)CC1
97 | ≤ 1 µM | COc1cc2c(NS(=O)(=O)c3ccccc3)ncnc2cc1OCCCN(C)C
98 | ≤ 1 µM | COc1cc2c(NS(=O)(=O)c3ccc(OC(F)(F)F)cc3)ncnc2cc1OC1CCN(C)CC1
99 | ≤ 1 µM | COc1ccc(OC)c(S(=O)(=O)Nc2ncnc3cc(OCCCN(C)C)c(OC)cc23)c1
100 | ≤ 1 µM | COc1cc2c(NS(=O)(=O)Cc3ccccc3)ncnc2cc1OCCN1CCN(C)CC1
